The values that follow come from PubChem BioAssay AID1918943 (Molecular Pharmacology Branch, DTP, NCI, 2023).

Several values for one entry are separate records, joined by “and”; a condition that tells them apart may be missing. Equal entries are not always repeated. A value given as a limit tells only on which side of the number the result lay.

By IC50 is commonly meant the concentration needed to halve the response being measured. Usually viability, T/C stands for the result in the treated group divided by that in the control group, in per cent.

In this experiment the test system is 855422-203-R-J1-PDC complex spheroid viability. Put plainly: Anticancer human tumor 855422-203-R-J1-PDC patient-derived bladder carcinoma cell line growth inhibition. The following applies: for viability, T/C: stronger effect = lower value. A digest of the protocol:
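Drug combinations with the LSD1 inhibitor iadademstat tested on tumor cells co-cultured as spheroids with endothelial cells and mesenchymal stem cells. Concentrations descended in half-log increments from clinical Cmax or 10 microM.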

Setting [1] is: curve of first compound, second compound 0.1 µM.
Where [2] appears, read: curve of first compound, second compound 0.316 µM.
Where [3] appears, read: curve of first compound, second compound 1 µM.
[4] abbreviates: curve of first compound, second compound 3.16 µM.
Where [5] appears, read: curve of first compound, second compound 10 µM.
Setting [6] is: second compound 0.1 µM, first compound 0.0316 µM.
[7] abbreviates: second compound 0.1 µM, first compound 0.1 µM.
[8] abbreviates: second compound 0.1 µM, first compound 0.316 µM.
Where [9] appears, read: second compound 0.1 µM, first compound 1 µM.
[10] abbreviates: second compound 0.316 µM, first compound 0.0316 µM.
Setting [11] is: second compound 0.316 µM, first compound 0.1 µM.
Where [12] appears, read: second compound 0.316 µM, first compound 0.316 µM.
Where [13] appears, read: second compound 0.316 µM, first compound 1 µM.
The mark [14] stands for this setting: second compound 1 µM, first compound 0.0316 µM.
The mark [15] stands for this setting: second compound 1 µM, first compound 0.1 µM.
[16] abbreviates: second compound 1 µM, first compound 0.316 µM.
The mark [17] stands for this setting: second compound 1 µM, first compound 1 µM.
The mark [18] stands for this setting: second compound 3.16 µM, first compound 0.0316 µM.
Where [19] appears, read: second compound 3.16 µM, first compound 0.1 µM.
[20] abbreviates: second compound 3.16 µM, first compound 0.316 µM.
Setting [21] is: second compound 3.16 µM, first compound 1 µM.
[22] abbreviates: second compound 10 µM, first compound 0.0316 µM.
Where [23] appears, read: second compound 10 µM, first compound 0.1 µM.
[24] abbreviates: second compound 10 µM, first compound 0.316 µM.
The mark [25] stands for this setting: second compound 10 µM, first compound 1 µM.
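Note: drug exposure lasted 7 days starting on day 3 after seeding.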
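Throughout, for viability, T/C: luminescence viability as percent of DMSO vehicle wells = 100%.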

In the case of `COc1cc(Nc2ncc3c(n2)-c2ccc(Cl)cc2C(c2c(F)cccc2OC)=NC3)ccc1C(=O)O` + NC1CC1c1ccc(-c2cccc(O)c2)cc1, the IC50 came out at 670 nM under setting [1]; 284 nM under setting [2]; 89.7 nM under setting [3]; 275 nM under setting [4]; 135 nM under setting [5]. In addition, the viability, T/C (second compound 0.1 µM, first compound 0.00316 µM) was 96.4%; the viability, T/C (second compound 0.1 µM, first compound 0.01 µM) is 103%; the viability, T/C under setting [6] was 84%; the viability, T/C under setting [7] was 68.6%; the viability, T/C under setting [8] was 56.2%; the viability, T/C under setting [9] was 46.5%. The viability, T/C is 96.9% (second compound 0.316 µM, first compound 0.00316 µM); 96.4% (second compound 0.316 µM, first compound 0.01 µM); 71% under setting [10]; 61.2% under setting [11]; 49.9% under setting [12]; 44.4% under setting [13]. Further, the viability, T/C is 82.5% (second compound 1 µM, first compound 0.00316 µM); 93.4% (second compound 1 µM, first compound 0.01 µM); 69.5% under setting [14]; 51.8% under setting [15]; 45.8% under setting [16]; 46.1% under setting [17]. Moreover, the viability, T/C was 88.3% (second compound 3.16 µM, first compound 0.00316 µM); 95.5% (second compound 3.16 µM, first compound 0.01 µM); 69.9% under setting [18]; 61.4% under setting [19]; 50% under setting [20]; 43.4% under setting [21]. Besides, the viability, T/C (second compound 10 µM, first compound 0.00316 µM) is 85.7%; the viability, T/C (second compound 10 µM, first compound 0.01 µM) was 94.1%; the viability, T/C under setting [22] was 63.1%; the viability, T/C under setting [23] is 56.8%; the viability, T/C under setting [24] was 44.2%; the viability, T/C under setting [25] was 39.5%.
Consider `CCc1c2c(nc3ccc(O)cc13)-c1cc3c(c(=O)n1C2)COC(=O)[C@]3(O)CC` + NC1CCC(NC2CC2c2ccccc2)CC1, for which the half-maximal inhibitory concentration (IC50) reads like this: under setting [1], less than 0.949 nM; under setting [2], less than 0.949 nM; under setting [3], less than 0.949 nM; under setting [4], less than 0.949 nM; under setting [5], less than 0.949 nM. Further, the viability, T/C is 21.1% (second compound 0.1 µM, first compound 0.000949 µM); 16% (second compound 0.1 µM, first compound 0.003 µM); 11.9% (second compound 0.1 µM, first compound 0.00949 µM); 9.64% (second compound 0.1 µM, first compound 0.03 µM); 6.14% (second compound 0.1 µM, first compound 0.0949 µM); 2.74% (second compound 0.1 µM, first compound 0.3 µM). Besides, the viability, T/C is, setting by setting: (second compound 0.316 µM, first compound 0.000949 µM) 22.6%; (second compound 0.316 µM, first compound 0.003 µM) 19.5%; (second compound 0.316 µM, first compound 0.00949 µM) 12.3%; (second compound 0.316 µM, first compound 0.03 µM) 9.27%; (second compound 0.316 µM, first compound 0.0949 µM) 5.32%; (second compound 0.316 µM, first compound 0.3 µM) 5.13%. The viability, T/C was 23.6% (second compound 1 µM, first compound 0.000949 µM); 17.3% (second compound 1 µM, first compound 0.003 µM); 13.2% (second compound 1 µM, first compound 0.00949 µM); 8.94% (second compound 1 µM, first compound 0.03 µM); 7.12% (second compound 1 µM, first compound 0.0949 µM); 2.09% (second compound 1 µM, first compound 0.3 µM). Moreover, the viability, T/C by setting is: (second compound 3.16 µM, first compound 0.000949 µM) 22.1%; (second compound 3.16 µM, first compound 0.003 µM) 15.5%; (second compound 3.16 µM, first compound 0.00949 µM) 11.4%; (second compound 3.16 µM, first compound 0.03 µM) 9.39%; (second compound 3.16 µM, first compound 0.0949 µM) 4.78%; (second compound 3.16 µM, first compound 0.3 µM) 2.98%. Further, the viability, T/C was 20.7% (second compound 10 µM, first compound 0.000949 µM); 12.2% (second compound 10 µM, first compound 0.003 µM); 8.28% (second compound 10 µM, first compound 0.00949 µM); 8.25% (second compound 10 µM, first compound 0.03 µM); 4.8% (second compound 10 µM, first compound 0.0949 µM); 1.43% (second compound 10 µM, first compound 0.3 µM).
For the molecule `NC1CC1c1ccc(-c2cccc(O)c2)cc1` (stereo not drawn), the viability, T/C is 84.2% (compound 0.1 µM), 93.7% [middle of 25 runs] (compound 0.316 µM) and 90.2% [middle of 25 runs] (compound 1 µM). In addition, for the setting “compound alone, run of 12/07/2021”, the IC50 is greater than 10000 nM.
For `CCN(c1cc(-c2ccc(CN3CCOCC3)cc2)cc(C(=O)NCc2c(C)cc(C)[nH]c2=O)c1C)C1CCOCC1`, the viability, T/C by setting is: (compound 0.00949 µM) 105% and 109%; (compound 0.03 µM) 95.1% and 101%; (compound 0.0949 µM) 94.6% and 97.5%; (compound 0.3 µM) 86.5% and 91.6%; (compound 0.949 µM) 88% and 88.5%; (compound 3 µM) 84.7% and 89%. Besides, the IC50 (curve of compound) is greater than 3000 nM.
`CC1COCCN1c1cc(C2(S(C)(=N)=O)CC2)nc(-c2ccnc3[nH]ccc23)n1` (stereo not drawn): the viability, T/C (compound 0.0316 µM) was 108% and 93.8%; the viability, T/C (compound 0.1 µM) was 99.9% and 93.1%; the viability, T/C (compound 0.316 µM) was 101% and 94.4%; the viability, T/C (compound 1 µM) was 84.9% and 85.9%; the viability, T/C (compound 3.16 µM) was 45% and 36.6%; the viability, T/C (compound 10 µM) is 40.7% and 35%. For the same molecule, where the note is “curve of compound”, the IC50 is 2760 nM and 2310 nM.
For `COc1ccc([C@@H](O)c2cc(-c3ncnc4cc(N5CCOCC5)ccc34)c(F)cc2Cl)nn1` + NC1CC1c1ccc(-c2cccc(O)c2)cc1, the IC50 turned out to be 5200 nM under setting [1]; 4860 nM under setting [2]; 4320 nM under setting [3]; 3560 nM under setting [4]; 2740 nM under setting [5]. For the same molecule, the viability, T/C is 86.7% under setting [6]; 90.9% under setting [7]; 84.9% under setting [8]; 77.7% under setting [9]; 62.1% (second compound 0.1 µM, first compound 3.16 µM); 34.4% (second compound 0.1 µM, first compound 10 µM). Also, the viability, T/C was 94.5% under setting [10]; 88.2% under setting [11]; 90.4% under setting [12]; 80.2% under setting [13]; 57.9% (second compound 0.316 µM, first compound 3.16 µM); 36.7% (second compound 0.316 µM, first compound 10 µM). The viability, T/C under setting [14] was 84.4%; the viability, T/C under setting [15] was 88.8%; the viability, T/C under setting [16] was 79.8%; the viability, T/C under setting [17] was 75.2%; the viability, T/C (second compound 1 µM, first compound 3.16 µM) is 54%; the viability, T/C (second compound 1 µM, first compound 10 µM) is 38.2%. Moreover, the viability, T/C reads like this: under setting [18], 88.6%; under setting [19], 93.9%; under setting [20], 77.3%; under setting [21], 69.8%; (second compound 3.16 µM, first compound 3.16 µM) 51.8%; (second compound 3.16 µM, first compound 10 µM) 35.1%. In addition, the viability, T/C is 83.3% under setting [22]; 77.6% under setting [23]; 75.2% under setting [24]; 71.3% under setting [25]; 46.6% (second compound 10 µM, first compound 3.16 µM); 29.9% (second compound 10 µM, first compound 10 µM).
